Measurements: publication PMC5853558, “De novo identification of lipid II binding lipopeptides with antibacterial activity against vancomycin-resistant bacteria” (Chemical Science, 2017)
Converted amounts (≈) assume the structure as drawn. *1 amine or outer side, *2 acyl side, *3 side chain or, on linkers, in order; H or OH if unused. Where a SMILES comes first, the peptide text is derived from it. Bridges are numbered along the chain shown (N, C = ends). [ ]: non-standard residue; d: D form. The star is where a group is joined. TBMB = c1c(C[*:1])cc(C[*:3])cc1C[*:2]; NHDecyl = CCCCCCCCCCN*

Legend:
lipid II = test: Lipid II antagonization assay; format: cell-based, M. luteus; parameters: key to Result with antagonist Lipid II: +: antagonization of antibiotic activity; -: no antagonization of antibiotic activity; conditions: for Result with antagonist Lipid II: Supplemental table S10, peptide at 4x MIC, antagonist at 4 molar equivalents, M. luteus 1 x 10^6 CFU/ml, 16 h at 30°C, growth observed visually; for Effect of pre-incubation with lipid II on antibacterial activity: premixed with an excess of lipid II before addition of a live culture of M. luteus
Procedure: To assess the role of lipid II in the mode of action of the lipopeptides a lipid II antagonization assay was employed.[18],[33] This assay was performed by premixing P8-D-C10 or the optimized P8-D-(S6R, R15A)-C10 with an excess of lipid II prior to addition of a live culture of M. luteus. […] To probe the stereochemical aspects of lipid II recognition by the optimized P8-D-(S6R, R15A)-C10 lipopeptide we also prepared and tested the corresponding enantiomeric L-peptide species P8-L-(S6R, R15A)-C10. […] Given that lipid II is a chiral biomolecule we had expected the enantiomeric lipopeptides to have different activities based on the assumption that they would interact differently with lipid II. To further investigate this phenomenon we employed the same lipid II antagonization assay described above. […] To explain this observation we hypothesize that the two enantiomeric peptides interact primarily with the pyrophosphate moiety of lipid II and are therefore less influenced by the chiral elements present elsewhere in the lipid II molecule. The pyrophosphate group is known to be a binding site for many natural occurring lipid II binding peptides.[15],[16] […] To test the hypothesis that both the P8-D-(S6R, R15A)-C10 and P8-L-(S6R, R15A)-C10 lipopeptides interact with the pyrophosphate moiety we performed an additional antagonizaiton experiment using C55-PP.
Section 4 Biological and biochemical experiments
4.1 Minimum inhibitory concentration assay
MIC values were determined by using the broth microdilution method. Peptides were dissolved first in DMSO and diluted with broth so that the final peptide concentration was 1024 µg/ml and the DMSO concentration was 4%. Peptide serial dilutions were made in TSB in a polypropylene 96-wells plate using 50 µl volumes. An overnight culture of the organism of interest was diluted to and OD600 of 0.01 and grown until they reach 0.5. The culture was then diluted to 1 x 10^6 CFU/ml and 50 µl of this suspension was added to each well. The highest concentrations were then 512 µg/ml peptide and 2% DMSO. The plates were incubated at the preferred growth temperature of the organism that was used and 250 rpm. […] When […]
determining the MICs of the lipidated peptides, the lipopeptides were first dissolved in DMSO and diluted with TSB so that the peptide concentration was 128 µg/ml and the DMSO concentration was 4%. After inoculation the highest peptide concentration evaluated was 64 µg/ml and the DMSO concentration was 2%. A DMSO control was tested for each strain to ensure the DMSO did not affect the growth of the particular strain. […]
4.4 Antagonization assays
Stock solutions of each peptide antibiotic were prepared so that their final concentration in the assay would be 4x MIC. Peptides were transferred to a 96 wells plate and lipid II or C15-P (farnesyl-phosphate) was added at 4 molar equivalents in a final volume of 50 µl. Each well received 50 µl of bacterial suspension (M. luteus) at 1 x 10^6 CFU/ml and the plates were incubated for 16 h at 250 rpm and 30°C. Growth was observed visually (see supplemental table S10 for results).

M. luteus (NCTC2665) = test: microbe, parasite or virus in culture; format: cell-based, Micrococcus luteus
Summary of the method: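 Exponential-phase bacteria (OD600 0.5) were diluted to 1 x 10^6 CFU/ml and added in equal volume to twofold peptide dilutions in TSB. Highest final levels were 512 µg/ml for peptides and 64 µg/ml for lipidated peptides, each with 2% DMSO. Plates shook at 250 rpm at the organism's preferred temperature.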

[1] = Supplemental table S9, MIC values of Table 2 expressed in µM
[2] = Table 2, broth microdilution in TSB, 16 h, read visually, highest tested 64 µg/ml, 2% DMSO

| SMILES | Result with antagonist Lipid II (lipid II) | Effect of pre-incubation with lipid II on antibacterial activity (lipid II) | MIC M. luteus (NCTC2665) (M. luteus (NCTC2665); [1]) | MIC M. luteus (NCTC2665) (M. luteus (NCTC2665); [2]) |
| --- | --- | --- | --- | --- |
| CCCCCCCCCCNC(=O)CNC(=O)[C@H]1CSCc2cc3cc(c2)CSC[C@@H](NC(=O)[C@@H](CC(C)C)NC(=O)[C@@H](CC(C)C)NC(=O)[C@@H](CCCNC(=N)N)NC(=O)[C@@H](CCC(N)=O)NC(=O)[C@@H](CC(C)C)NC(=O)[C@@H](CC(C)C)NC(=O)[C@H](NC(=O)[C@@H](C)N)CSC3)C(=O)N2CCC[C@@H]2C(=O)N[C@H](Cc2ccc(O)cc2)C(=O)N[C@H](CO)C(=O)N[C@H]([C@H](C)O)C(=O)N[C@H](Cc2c[nH]cn2)C(=O)N[C@H](C)C(=O)N1 [P8-D-(S6R, R15A)-C10] (H-[dA][dC][dL][dL][dQ][dR][dL][dL][dC][dP][dY][dS][dT][dH][dA][dC]G-NHDecyl; linker 2-9-16 via TBMB; N-terminus assumed) | + | antagonization of antibacterial activity | 3.8 µM (≈ 7.99 µg/mL) | 4 μg mL^–1 |
| CCCCCCCCCCNC(=O)CNC(=O)[C@@H]1CSCc2cc3cc(c2)CSC[C@H](NC(=O)[C@H](CC(C)C)NC(=O)[C@H](CC(C)C)NC(=O)[C@H](CCCNC(=N)N)NC(=O)[C@H](CCC(N)=O)NC(=O)[C@H](CC(C)C)NC(=O)[C@H](CC(C)C)NC(=O)[C@@H](NC(=O)[C@H](C)N)CSC3)C(=O)N2CCC[C@H]2C(=O)N[C@@H](Cc2ccc(O)cc2)C(=O)N[C@@H](CO)C(=O)N[C@@H]([C@@H](C)O)C(=O)N[C@@H](Cc2c[nH]cn2)C(=O)N[C@@H](C)C(=O)N1 [P8-L-(S6R, R15A)-C10] (H-ACLLQRLLCPYSTHACG-NHDecyl; linker 2-9-16 via TBMB; N-terminus assumed) | + | effectively antagonized | 3.8 µM (≈ 7.99 µg/mL) | 4 μg mL^–1 |
